Test results published in publication PMC8286840, “Identifying SARS-CoV-2 antiviral compounds by screening for small molecule inhibitors of Nsp3 papain-like protease” (Biochemical Journal, 2021).
Structures can show the parent of a compound that is named as a salt. Where two headings read alike, the source gives them in different places.

Assays:
[1] = biological target: T1, SARS-CoV-2 PLpro (nsp3 1564–1878) (Severe acute respiratory syndrome coronavirus 2, UniProt P0DTD1); assay: biochemical; design: FRET-quenched peptide (Pro3) cleavage by PLpro, 10 min pre-incubation, slope over 20 min, normalised to no-compound control; conditions: low concentration screen, read-out: % of control remaining
[2] = biological target: T1, SARS-CoV-2 PLpro (nsp3 1564–1878); assay: biochemical; design: FRET-quenched peptide (Pro3) cleavage by PLpro, 10 min pre-incubation, slope over 20 min, normalised to no-compound control; conditions: high concentration screen, read-out: % of control remaining

SMILES: CN1CC(=O)NC1=N [Creatinine]
- remaining activity at 1.25 µM ([1]; Well no.=5324): 96.6%
- remaining activity at 1.25 µM ([1]; Well no.=6967): 104%
- remaining activity at 3.75 µM ([2]; Well no.=5324): 92.2%
- remaining activity at 3.75 µM ([2]; Well no.=6967): 101%

SMILES: C[C@@H](Oc1cc(-c2cnn(C3CCNCC3)c2)cnc1N)c1c(Cl)ccc(F)c1Cl [Crizotinib]
- remaining activity at 1.25 µM ([1]; Well no.=5612): 99.8%
- remaining activity at 3.75 µM ([2]; Well no.=5612): 101%

SMILES: CN(C)c1ccc(C(=C2C=CC(=[N+](C)C)C=C2)c2ccc(N(C)C)cc2)cc1 [Crystal violet]
- remaining activity at 1.25 µM ([1]; Well no.=5000): 101%
- remaining activity at 3.75 µM ([2]; Well no.=5000): 101%

SMILES: CC(C)(OO)c1ccccc1 [Cumene hydroperoxide]
- remaining activity at 1.25 µM ([1]; Well no.=3843): 103%
- remaining activity at 3.75 µM ([2]; Well no.=3843): 100%

SMILES: COc1cc(/C=C/C(=O)CC(=O)/C=C/c2ccc(O)c(OC)c2)ccc1O [Curcumin]
- remaining activity at 1.25 µM ([1]; Well no.=3177): 112%
- remaining activity at 1.25 µM ([1]; Well no.=3949): 106%
- remaining activity at 3.75 µM ([2]; Well no.=3177): 105%
- remaining activity at 3.75 µM ([2]; Well no.=3949): 102%

SMILES: C=C1C[C@@]2(O)O[C@@]3(C[C@H]2C(C)C)[C@@H](C)CC[C@@H]13 [Curcumol]
- remaining activity at 1.25 µM ([1]; Well no.=5202): 90.5%
- remaining activity at 3.75 µM ([2]; Well no.=5202): 85.6%

SMILES: CC(CN(C)C)CN1c2ccccc2Sc2ccc(C#N)cc21 (centres unmarked) [Cyamemazine]
- remaining activity at 1.25 µM ([1]; Well no.=5789): 102%
- remaining activity at 3.75 µM ([2]; Well no.=5789): 105%

SMILES: Nc1nc2c(ncn2[C@@H]2O[C@@H]3COP(=O)(O)O[C@H]4[C@@H](O)[C@H](n5cnc6c(=O)[nH]c(N)nc65)O[C@@H]4COP(=O)(O)O[C@H]3[C@H]2O)c(=O)[nH]1 [Cyclic-di-GMP]
- remaining activity at 1.25 µM ([1]; Well no.=7774): 103%
- remaining activity at 1.25 µM ([1]; Well no.=8405): 101%
- remaining activity at 3.75 µM ([2]; Well no.=7774): 102%
- remaining activity at 3.75 µM ([2]; Well no.=8405): 100%

SMILES: NCCCC[C@@H]1NC(=O)[C@@H](Cc2ccccc2)NC(=O)[C@H](CC(=O)O)NC(=O)CNC(=O)[C@H](CCCN=C(N)N)NC1=O [Cyclo(-RGDfK)]
- remaining activity at 1.25 µM ([1]; Well no.=8410): 96.3%
- remaining activity at 3.75 µM ([2]; Well no.=8410): 96.9%

SMILES: NCCCC[C@@H]1NC(=O)[C@@H](Cc2ccc(O)cc2)NC(=O)[C@H](CC(=O)O)NC(=O)CNC(=O)[C@H](CCCN=C(N)N)NC1=O [Cyclo(RGDyK) trifluoroacetate]
- remaining activity at 1.25 µM ([1]; Well no.=8698): 101%
- remaining activity at 3.75 µM ([2]; Well no.=8698): 97.8%

SMILES: O=C1N[C@@H](Cc2cnc[nH]2)C(=O)N2CCC[C@@H]12 [Cyclo(his-pro)]
- remaining activity at 1.25 µM ([1]; Well no.=6245): 106%
- remaining activity at 3.75 µM ([2]; Well no.=6245): 105%

SMILES: CN(C)CCC=C1c2ccccc2C=Cc2ccccc21 [Cyclobenzaprine (hydrochloride)]
- remaining activity at 1.25 µM ([1]; Well no.=6284): 106%
- remaining activity at 3.75 µM ([2]; Well no.=6284): 105%

SMILES: CN(C)CCC=C1c2ccccc2C=Cc2ccccc21 [Cyclobenzaprine hydrochloride]
- remaining activity at 1.25 µM ([1]; Well no.=320): 92.5%
- remaining activity at 3.75 µM ([2]; Well no.=320): 93.2%

SMILES: N=c1ccn2c(n1)O[C@H]1[C@H](O)[C@@H](CO)O[C@H]12 [Cyclocytidine]
- remaining activity at 1.25 µM ([1]; Well no.=1936): 96.5%
- remaining activity at 3.75 µM ([2]; Well no.=1936): 103%

SMILES: C[C@@H]1C[C@@H]([C@H](O)CC2CC(=O)NC(=O)C2)C(=O)[C@@H](C)C1 [Cycloheximide]
- remaining activity at 1.25 µM ([1]; Well no.=3179): 98.2%
- remaining activity at 3.75 µM ([2]; Well no.=3179): 98.5%

SMILES: CC1=C2C[C@H]3[C@@H](CC=C4C[C@@H](O)CC[C@@]43C)[C@@H]2CC[C@]12O[C@@H]1C[C@H](C)CN[C@H]1[C@H]2C [Cyclopamine]
- remaining activity at 1.25 µM ([1]; Well no.=3181): 107%
- remaining activity at 3.75 µM ([2]; Well no.=3181): 106%

SMILES: CC(=O)C1=C(O)[C@@H]2[C@H]3c4c[nH]c5cccc(c45)C[C@H]3C(C)(C)N2C1=O [Cyclopiazonic acid]
- remaining activity at 1.25 µM ([1]; Well no.=3183): 102%
- remaining activity at 3.75 µM ([2]; Well no.=3183): 104%

SMILES: NS(=O)(=O)c1cc2c(cc1Cl)NC(C1CC3C=CC1C3)NS2(=O)=O (centres unmarked) [Cyclothiazide]
- remaining activity at 1.25 µM ([1]; Well no.=387): 104%
- remaining activity at 3.75 µM ([2]; Well no.=387): 101%

SMILES: CN1CCC(=C2c3ccccc3C=Cc3ccccc32)CC1 [Cyproheptadine (hydrochloride sesquihydrate)]
- remaining activity at 1.25 µM ([1]; Well no.=6185): 97.8%
- remaining activity at 3.75 µM ([2]; Well no.=6185): 95.9%

SMILES: CN1CCC(=C2c3ccccc3C=Cc3ccccc32)CC1 [Cyproheptadine (hydrochloride)]
- remaining activity at 1.25 µM ([1]; Well no.=6994): 97.6%
- remaining activity at 3.75 µM ([2]; Well no.=6994): 99.7%

SMILES: CN1CCC(=C2c3ccccc3C=Cc3ccccc32)CC1 [Cyproheptadine hydrochloride]
- remaining activity at 1.25 µM ([1]; Well no.=38): 93.9%
- remaining activity at 3.75 µM ([2]; Well no.=38): 91.5%

SMILES: CN1CCC(=C2c3ccccc3C=Cc3ccccc32)CC1 [Cyproheptadine]
- remaining activity at 1.25 µM ([1]; Well no.=2300): 97.2%
- remaining activity at 3.75 µM ([2]; Well no.=2300): 98.2%

SMILES: CC(=O)O[C@]1(C(C)=O)CC[C@H]2[C@@H]3C=C(Cl)C4=CC(=O)[C@@H]5C[C@@H]5[C@]4(C)[C@H]3CC[C@@]21C [Cyproterone acetate]
- remaining activity at 1.25 µM ([1]; Well no.=316): 95.3%
- remaining activity at 1.25 µM ([1]; Well no.=1934): 99.5%
- remaining activity at 3.75 µM ([2]; Well no.=316): 95.7%
- remaining activity at 3.75 µM ([2]; Well no.=1934): 99.8%

SMILES: NCCSSCCN [Cystamine dihydrochloride]
- remaining activity at 1.25 µM ([1]; Well no.=280): 97%
- remaining activity at 3.75 µM ([2]; Well no.=280): 99.9%

SMILES: NCCS [Cysteamine hydrochloride]
- remaining activity at 1.25 µM ([1]; Well no.=884): 105%
- remaining activity at 3.75 µM ([2]; Well no.=884): 103%

SMILES: Nc1ccn([C@@H]2O[C@H](CO)[C@@H](O)[C@@H]2O)c(=O)n1 [Cytarabine]
- remaining activity at 1.25 µM ([1]; Well no.=1938): 99.8%
- remaining activity at 1.25 µM ([1]; Well no.=8847): 108%
- remaining activity at 3.75 µM ([2]; Well no.=1938): 98.4%
- remaining activity at 3.75 µM ([2]; Well no.=8847): 105%

SMILES: Nc1ccn([C@@H]2O[C@H](CO)[C@@H](O)[C@H]2O)c(=O)n1 [Cytidine]
- remaining activity at 1.25 µM ([1]; Well no.=5054): 97.5%
- remaining activity at 1.25 µM ([1]; Well no.=6205): 108%
- remaining activity at 1.25 µM ([1]; Well no.=8014): 98.6%
- remaining activity at 3.75 µM ([2]; Well no.=5054): 100%
- remaining activity at 3.75 µM ([2]; Well no.=6205): 110%
- remaining activity at 3.75 µM ([2]; Well no.=8014): 97.3%

SMILES: C=C1[C@@H](C)[C@H]2[C@H](Cc3ccccc3)NC(=O)[C@]23OC(=O)/C=C/[C@H](O)CCC[C@@H](C)C/C=C/[C@H]3[C@@H]1O [Cytochalasin B]
- remaining activity at 1.25 µM ([1]; Well no.=3189): 98%
- remaining activity at 3.75 µM ([2]; Well no.=3189): 98.1%

SMILES: C=C1[C@@H](C)[C@H]2[C@H](Cc3ccccc3)NC(=O)[C@]23[C@H](OC(C)=O)/C=C/[C@@](C)(O)C(=O)[C@@H](C)C/C=C/[C@H]3[C@@H]1O [Cytochalasin D]
- remaining activity at 1.25 µM ([1]; Well no.=3581): 98.2%
- remaining activity at 3.75 µM ([2]; Well no.=3581): 99.7%

SMILES: C[C@H]1C/C=C/[C@H]2[C@@H]3O[C@]3(C)[C@@H](C)[C@H]3[C@H](Cc4ccccc4)NC(=O)[C@]32OC(=O)O/C=C/[C@@](C)(O)C1=O [Cytochalasin E]
- remaining activity at 1.25 µM ([1]; Well no.=3627): 101%
- remaining activity at 3.75 µM ([2]; Well no.=3627): 103%
